In paper PMC5876388 (Scientific Reports, 2018):

What was measured:
[1] = test system: Notch signaling (LS174T Notch cells); test: Notch signaling transcriptional activity assay (luciferase reporter, T-REx system); assay type: cell-based; conditions: Homo sapiens, LS174T, 12 h, read-out: IC50 of Notch signal inhibitory activity (luciferase)
From the text: We constructed a cell-based reporter assay with the T-Rex system to evaluate Notch signaling inhibitory activity. Without doxycycline (Dox), the tetracycline repressor (TetR) inhibits the expression of N-terminally FLAG-tagged mouse Notch1(1704–2531), which is 40 aa longer than NICD at the N-terminus. In the presence of Dox, Dox binds to the TetR to release the inhibition of expression of Notch1(1704–2531). Cleavage of Notch1(1704–2531) by γ-secretase generates NICD, which then translocates to the nucleus and forms a heterotrimer with RBP-J driving luciferase transcription (Fig. 2). This assay cells (LS174T Notch cells) was stably incorporated with pGL4.20 luciferase plasmid which has 12 × RBP-J binding site (12 copies of […])-β-globin promoter. Cell viability was measured using a fluorometric microculture cytotoxicity assay. […] The composition of the G. speciosa MeOH extract was partitioned successively with hexane, EtOAc, nBuOH, and water.
Figure 2 The T-REx assay system. Without Dox, expression of Notch1(1704–2531) is suppressed by TetR. The addition of Dox inactivates TetR to initiate expression of Notch1(1704–2531), which is then cleaved by endogenous γ-secretase to form NICD. NICD then translocates to the nucleus and forms a heterotrimer with RBP-J and MAML that binds to a 12× RBP-J binding site to drive luciferase expression. Luciferase activity was detected as Notch signaling pathway activity. Dox: doxycycline, TetR: tetracycline repressor, Luc.: luciferase.
Assay cells (LS174T Notch cells: 2 × 10^4 cells/well) were incubated in a 96-well white plate at 37 °C for 12 h. After incubation, 50 ng/mL Dox was added to each well to induce expression of exogenous Notch1(1704–2531) protein. After incubation at 37 °C for 12 h, the medium was changed to Dox-free medium containing individual samples. Luciferase activity was measured after treatment at 37 °C for 12 h. Cell viability was evaluated by the FMCA method at the same time. These assays were performed in 0.1% DMSO (n = 3). Error bars represent SD.
In a 96-well white plate, Cells (LS174T Notch cells; 2 × 10^4 cells per well) were cultured at 37 °C for 12 h. To express Notch1(1704–2531) protein in the cells, doxycycline (50 ng/mL) was added to each well, and cells were cultured at 37 °C for 12 h. Medium was changed to doxycycline-free medium containing each sample, then cells were incubated with at 37 °C for 12 h. A microplate luminometer (Thermo Fisher Scientific Inc., Waltham, USA) and the Bright-Glo™ Luciferase Assay System (Promega Co., Madison, USA) were used for measurement of Luciferase activity. Fluorometric Microculture Cytotoxicity Assay (FMCA) was used for measurement of cell viability of the sample-treated cells. After incubation of assay cells (2×10^4 cells per well) in a 96-well black plate at 37 °C for 24 h, samples addition was performed at the same time as the luciferase assay. The assay cells were cultures at 37 °C for 12 h. A fluorescence plate reader (Thermo Fisher Scientific Inc., Waltham, USA) was used for determination of cell viability by FMCA.

nicastrin = biological target: T1, nicastrin (Homo sapiens, UniProt Q92542); test: Western blot in HPB-ALL cells; assay type: cell-based
T1 construct: endogenous in cells; host or cells: HPB-ALL
Experimental: (§1) (A) Schematic representation of γ-secretase complex. γ-Secretase is composed of four membrane proteins: presenilin1 (PS1), nicastrin (NCT), anterior pharynx defective 1 (APH-1) and presenilin enhancer 2 (PEN-2). […] (E,F) Relative protein levels of nicastrin mature and immature analyzed by densitometry. […] P values were analyzed by Student’s t test.
(§2) Media also contained different concentrations of compound. Cells were incubated at 37 °C for 72 h (12 h, when treatment with MG132). After incubation, cells were centrifuged and collected, and then washed with 500 μL of PBS twice. To prepare cell lysate and confirm protein expression levels, the same method as described above was used.

APH-1 = test: Western blot in HPB-ALL cells; assay type: cell-based, human; conditions: 72 h
Experimental: as §1, §2

PEN-2 = test: Western blot in HPB-ALL cells; assay type: cell-based, human; conditions: 72 h
Experimental: as §1, §2

PS1 = test: Western blot in HPB-ALL cells; assay type: cell-based, human; conditions: 72 h
Experimental: as §1, §2

T1 sequence (Q92542 34-709): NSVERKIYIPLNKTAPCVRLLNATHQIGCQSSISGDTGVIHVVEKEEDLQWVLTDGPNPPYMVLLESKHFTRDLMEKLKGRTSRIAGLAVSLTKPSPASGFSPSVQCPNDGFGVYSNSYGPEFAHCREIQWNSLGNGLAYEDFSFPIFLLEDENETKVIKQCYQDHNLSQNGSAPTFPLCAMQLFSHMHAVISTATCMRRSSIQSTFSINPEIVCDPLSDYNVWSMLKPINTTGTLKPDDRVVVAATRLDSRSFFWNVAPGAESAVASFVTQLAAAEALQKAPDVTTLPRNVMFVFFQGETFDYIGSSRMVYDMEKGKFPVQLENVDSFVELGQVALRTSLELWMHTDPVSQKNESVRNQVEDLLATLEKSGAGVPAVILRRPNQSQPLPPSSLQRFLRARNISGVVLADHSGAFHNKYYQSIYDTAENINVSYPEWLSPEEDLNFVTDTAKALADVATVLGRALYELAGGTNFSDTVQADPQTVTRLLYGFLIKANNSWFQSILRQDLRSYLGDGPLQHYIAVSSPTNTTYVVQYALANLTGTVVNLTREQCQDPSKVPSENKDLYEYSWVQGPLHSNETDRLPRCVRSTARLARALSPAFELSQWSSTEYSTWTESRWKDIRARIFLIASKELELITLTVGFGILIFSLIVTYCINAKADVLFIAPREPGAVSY

COc1c(O)cc2oc3cc(O)c(CC=C(C)C)c(O)c3c(=O)c2c1C/C=C(\C)CCC=C(C)C [Compound 2, cowanin]
IC50 [1]: 2.4 µM
immature versus mature nicastrin (nicastrin; 15 μM, 12 h, densitometry): decreased immature nicastrin stronger than mature nicastrin
nicastrin levels (nicastrin; 72 h, Western blot): reduced
decrease in nicastrin expression with proteasome inhibitor MG132 (nicastrin; cowanin 15 μM + MG132 5 μM, 12 h): not so marked
expression of APH-1 (APH-1): didn’t affect
expression of PEN-2 (PEN-2): didn’t affect
expression of PS1 (PS1): didn’t affect
